Target: human NaV 1.7 (Homo sapiens, UniProt Q15858)
Experiment: E-VIPR optical membrane potential assay with electrical stimulation
Assay type: cell-based
Conditions: sodium channel inhibition; read-out: Binned Activity Data (IC50)
Method in brief: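 Membrane-potential read-out: background-subtracted 460 nm/580 nm ratio during a 9 s current-controlled stimulus, 400 Hz scan. Before stimulation, NaV1.7-HEK cells carried coumarin/oxonol dye and compound (final DMSO 0.625%) for 20–35 min at room temperature; tetracaine 125 μM served as positive control.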

Chain of human NaV 1.7 (Q15858 whole entry): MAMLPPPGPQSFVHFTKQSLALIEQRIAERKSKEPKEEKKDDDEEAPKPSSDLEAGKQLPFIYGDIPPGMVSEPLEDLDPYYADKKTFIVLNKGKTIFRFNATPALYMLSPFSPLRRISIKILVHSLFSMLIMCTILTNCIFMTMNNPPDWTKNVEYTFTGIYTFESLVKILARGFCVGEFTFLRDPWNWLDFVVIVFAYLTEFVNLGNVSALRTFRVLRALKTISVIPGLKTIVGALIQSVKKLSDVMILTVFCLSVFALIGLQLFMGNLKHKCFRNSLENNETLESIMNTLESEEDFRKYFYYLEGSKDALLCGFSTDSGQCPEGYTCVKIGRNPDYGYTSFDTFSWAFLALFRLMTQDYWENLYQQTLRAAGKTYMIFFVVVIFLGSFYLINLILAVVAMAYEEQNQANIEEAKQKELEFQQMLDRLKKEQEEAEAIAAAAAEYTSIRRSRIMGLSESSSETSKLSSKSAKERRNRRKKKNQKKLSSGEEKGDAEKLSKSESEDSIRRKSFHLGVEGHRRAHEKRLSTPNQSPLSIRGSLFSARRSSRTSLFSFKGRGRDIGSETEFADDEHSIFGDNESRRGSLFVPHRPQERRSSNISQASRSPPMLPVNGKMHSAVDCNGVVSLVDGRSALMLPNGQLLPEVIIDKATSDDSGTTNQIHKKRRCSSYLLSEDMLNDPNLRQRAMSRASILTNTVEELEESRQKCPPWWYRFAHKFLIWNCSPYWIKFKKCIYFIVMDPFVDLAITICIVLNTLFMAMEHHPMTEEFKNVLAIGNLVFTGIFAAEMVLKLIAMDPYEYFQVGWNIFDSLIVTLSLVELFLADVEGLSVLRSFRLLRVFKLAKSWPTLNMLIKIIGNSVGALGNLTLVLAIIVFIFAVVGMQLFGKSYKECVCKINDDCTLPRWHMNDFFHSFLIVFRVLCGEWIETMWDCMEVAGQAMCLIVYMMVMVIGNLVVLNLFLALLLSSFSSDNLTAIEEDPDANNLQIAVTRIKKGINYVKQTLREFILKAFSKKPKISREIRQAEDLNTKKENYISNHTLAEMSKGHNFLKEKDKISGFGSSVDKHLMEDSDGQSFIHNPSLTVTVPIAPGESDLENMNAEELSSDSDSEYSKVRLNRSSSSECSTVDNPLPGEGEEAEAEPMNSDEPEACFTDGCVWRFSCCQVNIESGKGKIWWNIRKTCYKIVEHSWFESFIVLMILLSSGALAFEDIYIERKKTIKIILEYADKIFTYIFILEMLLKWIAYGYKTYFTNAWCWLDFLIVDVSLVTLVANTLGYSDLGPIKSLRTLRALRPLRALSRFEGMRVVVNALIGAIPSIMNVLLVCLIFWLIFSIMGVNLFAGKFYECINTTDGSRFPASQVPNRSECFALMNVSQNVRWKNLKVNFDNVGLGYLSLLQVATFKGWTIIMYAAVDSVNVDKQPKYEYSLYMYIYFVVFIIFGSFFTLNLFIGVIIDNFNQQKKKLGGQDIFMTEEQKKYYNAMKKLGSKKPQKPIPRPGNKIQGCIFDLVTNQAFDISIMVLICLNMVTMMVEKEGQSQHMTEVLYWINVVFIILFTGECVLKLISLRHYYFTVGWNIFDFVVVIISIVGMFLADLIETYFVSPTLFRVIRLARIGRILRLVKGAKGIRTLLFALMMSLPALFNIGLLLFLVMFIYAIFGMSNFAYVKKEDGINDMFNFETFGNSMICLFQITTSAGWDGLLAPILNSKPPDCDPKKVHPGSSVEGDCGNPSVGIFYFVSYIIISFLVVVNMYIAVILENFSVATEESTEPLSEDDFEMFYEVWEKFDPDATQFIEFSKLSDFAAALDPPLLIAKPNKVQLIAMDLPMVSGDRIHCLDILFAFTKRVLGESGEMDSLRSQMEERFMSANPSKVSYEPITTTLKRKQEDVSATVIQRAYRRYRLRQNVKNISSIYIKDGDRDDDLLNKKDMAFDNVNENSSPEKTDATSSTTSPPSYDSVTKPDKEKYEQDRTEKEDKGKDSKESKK

IC50	Structure (SMILES)
≤ 2000 nM	CC(C)(O)Cc1ccc(C(=O)N2CCC3(CC2)Oc2ccccc2-n2c(C#N)ccc23)cc1 [Compound 308]
≤ 2000 nM	Cc1cc(S(=O)(=O)C(C)C)ccc1C(=O)N1CCC2(CC1)Oc1ccccc1-c1c2cnn1C [Compound 53]
≤ 2000 nM	CC(C)Oc1ccc(C(=O)N2CCC3(CC2)Oc2ccccc2-n2c(C#N)ccc23)cc1CO [Compound 559]
≤ 2000 nM	Cc1nc(C(=O)N2CCC3(CC2)Oc2ccccc2-n2c(C(F)(F)F)ccc23)ccc1OC(C)C [Compound 658]
≤ 2000 nM	CC(C)Oc1ccc(C(=O)N2CCC3(CC2)Oc2ccccc2-c2c3cnn2C)cc1CO [Compound 66]
2000 to 5000 nM	CCc1ccc(C(=O)N2CCC3(CC2)Oc2cc(Cl)ccc2-n2cccc23)cc1O [Compound 489]
≤ 2000 nM	Cn1cc2c(n1)-c1ccccc1OC21CCN(C(=O)c2ccc(S(=O)(=O)NC3CC3)cc2)CC1 [Compound 767]
≤ 2000 nM	Cc1ccc(C(=O)N2CCC3(CC2)Oc2cc(F)ccc2-n2cccc23)cc1C [Compound 349]
≤ 2000 nM	C[C@](O)(CO)c1ccc(C(=O)N2CCC3(CC2)Oc2ccccc2-n2c(C#N)ccc23)cc1 [Compound 571]
≤ 2000 nM	COc1cc(C(=O)N2CCC3(CC2)Oc2ccccc2-n2c(C(C)=O)ccc23)ccc1OC(C)C [Compound 114]
2000 to 5000 nM	Cn1ncc2c1-c1ccccc1OC21CCN(C(=O)c2ccc(S(=O)(=O)C(C)(C)C)cc2)CC1 [Compound 643]
≤ 2000 nM	O=C(c1ccc(O[C@H]2CCOC2)c(C(F)(F)F)c1)N1CCC2(CC1)Oc1ccccc1-n1cccc12 [Compound 263]
≤ 2000 nM	COc1c(CO)cccc1C(=O)N1CCC2(CC1)Oc1ccccc1-n1c(C(F)(F)F)ccc12 [Compound 23]
≤ 2000 nM	Cn1cc2c(n1)-c1ccccc1OC21CCN(C(=O)c2ccc3ncsc3c2)CC1 [Compound 173]
≤ 2000 nM	COc1cc(C(=O)N2CCC3(CC2)Oc2cc(Cl)ccc2-n2cccc23)ccc1CCO [Compound 635]
≤ 2000 nM	CCc1ccccc1C(=O)N1CCC2(CC1)Oc1cc(Cl)ccc1-n1cccc12 [Compound 833]
≤ 2000 nM	CC(C)(O)c1ccc(C(=O)N2CCC3(CC2)Oc2ccccc2-n2c(C#N)ccc23)cc1 [Compound 762]
≤ 2000 nM	CCc1ccc(C(=O)N2CCC3(CC2)Oc2cc(CO)ccc2-n2cccc23)cc1OC [Compound 848]
≤ 2000 nM	COc1cc(C(=O)N2CCC3(CC2)Oc2ccccc2-n2cccc23)ccc1OC(C)(C)C#N [Compound 570]

IC50	Structure (SMILES)
> 5000 nM	Cn1ncc2c1-c1ccccc1OC21CCN(C(=O)c2ccc(OCCO)cc2)CC1 [Compound 496]
≤ 2000 nM	CC[C@H](C)Oc1ccc(C(=O)N2CCC3(CC2)Oc2cc(F)ccc2-n2cccc23)cc1OC [Compound 142]
≤ 2000 nM	COc1cc(OC)c(C(=O)N2CCC3(CC2)Oc2cc(F)ccc2-n2cccc23)cc1CO [Compound 660]
≤ 2000 nM	COc1ccc(C(=O)N2CCC3(CC2)Oc2ccccc2-c2c3cnn2C)cc1C [Compound 433]
≤ 2000 nM	Cn1ncc2c1-c1ccccc1OC21CCN(C(=O)c2ccc(OC(F)(F)F)c(Cl)c2)CC1 [Compound 636]
≤ 2000 nM	O=C(c1ccc(S(=O)(=O)[C@H]2CCOC2)cc1)N1CCC2(CC1)Oc1ccccc1-n1c(C(F)(F)F)ccc12 [Compound 151]
≤ 2000 nM	CC(C)Oc1ccc(C(=O)N2CCC3(CC2)Oc2ccccc2-c2c3cnn2C)cc1Cl [Compound 135]
≤ 2000 nM	COc1cccc(C(=O)N2CCC3(CC2)Oc2cc(Cl)ccc2-n2cccc23)c1 [Compound 724]
≤ 2000 nM	COc1cc(C(=O)N2CCC3(CC2)Oc2ccccc2-c2c3cnn2C)ccc1OCCC(C)C [Compound 362]
≤ 2000 nM	Cn1ncc2c1-c1ccc(F)cc1OC21CCN(C(=O)c2ccccc2OC(F)F)CC1 [Compound 258]
2000 to 5000 nM	Cc1c(C(=O)N2CCC3(CC2)Oc2ccccc2-c2c3cnn2C)cnn1-c1ccccc1 [Compound 252]
≤ 2000 nM	CC(C)Oc1ccccc1C(=O)N1CCC2(CC1)Oc1ccccc1-c1c2cnn1C [Compound 430]
≤ 2000 nM	Cc1cc(C(=O)N2CCC3(CC2)Oc2ccccc2-c2c3cnn2C)ccc1OC(C)C [Compound 5]
≤ 2000 nM	Cn1ncc2c1-c1ccc(Cl)cc1OC21CCN(C(=O)c2ccccc2OC(F)(F)F)CC1 [Compound 518]
2000 to 5000 nM	CCOc1cccc(C(=O)N2CCC3(CC2)Oc2ccccc2-c2c3cnn2C)c1F [Compound 738]
≤ 2000 nM	CNS(=O)(=O)c1ccc(C(=O)N2CCC3(CC2)Oc2ccccc2-n2c(C(F)(F)F)ccc23)cc1 [Compound 675]
≤ 2000 nM	CC1Oc2c(C(=O)N3CCC4(CC3)Oc3ccccc3-c3c4cnn3C)cccc2C1C (centres unmarked) [Compound 56]
≤ 2000 nM	O=C(c1ccccc1OC(F)F)N1CCC2(CC1)Oc1ccccc1-c1c2cnn1C(F)(F)F [Compound 337]
≤ 2000 nM	COc1cc(C(=O)N2CCC3(CC2)Oc2ccccc2-n2cccc23)ccc1C(C)(C)O [Compound 59]

IC50	Structure (SMILES)
≤ 2000 nM	CC(=O)c1ccc2n1-c1ccccc1OC21CCN(C(=O)c2ccc(S(=O)(=O)NC3CC3)cc2)CC1 [Compound 235]
≤ 2000 nM	COCCOc1ccc(C(=O)N2CCC3(CC2)Oc2cc(Cl)ccc2-n2cccc23)cc1OC [Compound 139]
2000 to 5000 nM	COc1cccc(F)c1C(=O)N1CCC2(CC1)Oc1ccccc1-c1c2cnn1C [Compound 763]
≤ 2000 nM	CC(C)Oc1ccc(C(=O)N2CCC3(CC2)Oc2ccccc2-n2c(C(F)(F)F)ccc23)nc1 [Compound 36]
≤ 2000 nM	Cc1ccc(C(=O)N2CCC3(CC2)Oc2ccccc2-n2cccc23)cc1Cl [Compound 27]
≤ 2000 nM	Cc1cc(C(=O)N2CCC3(CC2)Oc2cc(C#N)ccc2-n2cccc23)ccc1OC(C)C [Compound 338]
≤ 2000 nM	Cc1cc(C(=O)N2CCC3(CC2)Oc2cccc(C)c2-n2cccc23)ccc1OC(C)C [Compound 7]
> 5000 nM	O=C(c1ccc2ncsc2c1)N1CCC2(CC1)Oc1ccccc1-n1c(C(F)(F)F)ccc12 [Compound 15]
2000 to 5000 nM	CC(C)(C)[S+]([O-])c1ccc(C(=O)N2CCC3(CC2)Oc2ccccc2-n2c(C(F)(F)F)ccc23)cc1 (centres unmarked) [Compound 882]
≤ 2000 nM	Cc1cc(C(=O)N2CCC3(CC2)Oc2cc(F)ccc2-n2cccc23)ccc1OCC1CCCO1 (centres unmarked) [Compound 74]
≤ 2000 nM	Cc1cc(C(=O)N2CCC3(CC2)Oc2ccccc2-n2cccc23)ccc1OC(C)C [Compound 415]
≤ 2000 nM	COc1cc(C(=O)N2CCC3(CC2)Oc2cc(F)ccc2-n2cccc23)ccc1OCC1CCCO1 (centres unmarked) [Compound 632]
≤ 2000 nM	Cn1cc2c(n1)-c1ccccc1OC21CCN(C(=O)c2ccc(CC(C)(C)O)cc2)CC1 [Compound 598]
> 5000 nM	Cc1nc2ccc(C(=O)N3CCC4(CC3)Oc3ccccc3-c3c4cnn3C)cc2s1 [Compound 324]
> 5000 nM	COc1cc(C(=O)N2CCC3(CC2)Oc2ccccc2-c2nn(C)cc23)cc(OC)c1OC [Compound 747]
2000 to 5000 nM	CN(C)S(=O)(=O)c1ccc(C(=O)N2CCC3(CC2)Oc2ccccc2-c2c3cnn2C)cc1 [Compound 714]
≤ 2000 nM	COc1cc(OC(F)(F)F)ccc1C(=O)N1CCC2(CC1)Oc1cc(Cl)ccc1-n1cccc12 [Compound 116]
≤ 2000 nM	COc1cc(OC(C)(C)C#N)ccc1C(=O)N1CCC2(CC1)Oc1ccccc1-c1c2cnn1C [Compound 734]
